Data from US20090137613A1, “PHARMACEUTICALLY ACCEPTABLE SALTS AND POLYMORPHIC FORMS” (priority 2006, published 2009).
Counter-ions that a name gives are not always drawn. Like-named read-outs stand apart in the source and are kept apart here. Values belong to the compound of their own block, whether it stands above or below them.

Legend:
[1] = cited from earlier work; for bioavailability: oral, valacyclovir in comparison to acyclovir
[2] = Dynamic vapour sorption (DVS), moisture sorption / hygroscopicity; type: physicochemical
From the text: DVS is a measure of the water vapour or moisture sorption of a material under varying conditions of humidity and it can be used as a measure of the hygroscopicity of a given material. The DVS data as described herein was obtained using the Dynamic Vapour Sorption (DVS) methodology developed by Surface Measurement Systems (SMS) Ltd. for the rapid quantitative analysis of the water sorption properties of solids including pharmaceutical materials. The Surface Measurement Systems DVS instrument rapidly measures uptake and loss of moisture by flowing a carrier gas at a specified relative humidity (RH) over a sample (1 mg-1.5 g) suspended from the weighing mechanism of a Cahn D-200 ultra sensitive recording microbalance. This particular microbalance is used because it is capable of measuring changes in sample mass lower than 1 part in 10 million and provides the long-term stability as required for the accurate measurement of vapour sorption phenomena, which may take from minutes to days to complete depending upon the sample size and material. Indeed, a major factor in determining the water sorption behaviour of materials is the need to establish rapid water sorption equilibrium, therefore the DVS instrument allows sorption behaviour to be accurately determined on very small sample sizes (typically 10 mg), thus minimising the equilibration time required. One of the most critical factors for any instrumentation used for investigating moisture sorption behaviour is the temperature stability of the measurement system. The main DVS instrument systems as used herein are, therefore, housed in a precisely controlled constant temperature incubator with a temperature stability of ±0.1° C. This ensures very good instrument baseline stability as well as accurate control of the relative humidity generation. The required relative humidities are generated by accurately mixing dry and saturated vapour gas flows in the correct proportions using mass flow controllers. Humidity and temperature probes are situated just below the sample and reference holders to give independent verification of system performance. The microbalance mechanism is very sensitive to sorption and desorption of moisture. A constant dry gas purge to the balance head is, therefore, provided to give the best performance in terms of baseline stability. The purge flow is manually controlled such that in the event of a power failure, condensation of moisture in the balance head cannot occur. The DVS instrument is fully automated.

[3] = Thermogravimetric analysis (TGA), thermally induced weight loss / thermal stability; type: physicochemical
From the text: Polymorph I of valacyclovir mesylate according to the present invention is further characterised by a typical TGA thermograph, or substantially the same TGA thermograph, as shown in FIG. 3. As used herein, the term “TGA” refers to thermogravimetric analysis. […] TGA is restricted in transitions that involve either a gain or a loss of mass and it is most commonly used to study desolvation processes and compound decomposition.
FIG. 3: Typical TGA thermograph of polymorph I of valacyclovir mesylate obtained by using thermogravimetric analysis (TGA) using TGA 7 manufactured by Perkin-Elmer. The experiments were done under flow of nitrogen (35 ml/min) and heating rate was 10° C./min.

[4] = cited from earlier work
[5] = at about 90% relative humidity (RH)
[6] = temperature range of about 30-175° C.

Compound: Nc1nc2c(ncn2COCCO)c(=O)[nH]1 [Acyclovir, 9-[(2-hydroxyethoxy)methyl]guanine]
bioavailability [1]: low bioavailability

dynamic vapour sorption (DVS) [2, 5]: about 0.4%
stable to a temperature of (thermal stability confirmed by TGA) ([3]; solid form as prepared): about 200 °C
TGA weight loss ([3]; temperature range of about 200° C.): no TGA weight loss
Compound: CC(C)[C@H](N)C(=O)OCCOCn1cnc2c(=O)[nH]c(N)nc21 [Polymorph I of valacyclovir base, L-valine 2-[(2-amino-1,6-dihydro-6-oxo-9H-purin-9-yl)methoxy]ethyl ester]

Compound: CC(C)[C@H](N)C(=O)OCCOCn1cnc2c(=O)[nH]c(N)nc21 [valacyclovir hydrochloride]
solubility in water [4]: moderately soluble

Compound: CC(C)[C@H](N)C(=O)OCCOCn1cnc2c(=O)[nH]c(N)nc21 [valacyclovir, L-valine 2-[(2-amino-1,6-dihydro-6-oxo-9H-purin-9-yl)methoxy]ethyl ester]
absorption from the gastrointestinal tract ([1]; after oral administration): rapidly absorbed
bioavailability [1]: improved bioavailability

stable to a temperature of (thermal stability confirmed by TGA) ([3]; solid form as prepared): about 180 °C
TGA weight loss ([3]; temperature range of about 30-80° C.): about 2.6%
Compound: valacyclovir citrate [Polymorph I of valacyclovir citrate]

stable to a temperature of (thermal stability confirmed by TGA) ([3]; solid form as prepared): about 200 °C
TGA weight loss ([3]; temperature range of about 30-100° C.): about 0.9%
Compound: valacyclovir fumarate [Polymorph I of valacyclovir fumarate]

stable to a temperature of (thermal stability confirmed by TGA) [3]: about 150 °C
TGA weight loss ([3]; temperature range of about 30-140° C.): about 9.2%
Compound: valacyclovir fumarate [Polymorph II of valacyclovir fumarate]

stable to a temperature of (thermal stability confirmed by TGA) ([3]; solid form as prepared): about 160 °C
TGA weight loss ([3]; temperature range of about 30-150° C.): about 5.3%
Compound: valacyclovir maleate [Polymorph I of valacyclovir maleate]

dynamic vapour sorption (DVS) [2, 5]: about 3.6%
stable to a temperature of (thermal stability confirmed by TGA) ([3]; solid form as prepared): about 200 °C
TGA weight loss ([3]; temperature range of about 30-165° C.): about 2.5%
Compound: valacyclovir mesylate [Polymorph I of valacyclovir mesylate]

dynamic vapour sorption (DVS) ([2]; at about 80% RH): about 1.0%
dynamic vapour sorption (DVS) [2, 5]: about 5.1%
stable to a temperature of (thermal stability confirmed by TGA) ([3]; solid form as prepared): about 200 °C
TGA weight loss ([3]; temperature range of about 30-200° C.): no TGA weight loss
Compound: valacyclovir phosphate [Polymorph I of valacyclovir phosphate]

TGA weight loss [3, 6]: about 6.8%
Compound: valacyclovir phosphate [Polymorph II of valacyclovir phosphate]

dynamic vapour sorption (DVS) [2, 5]: about 5.2%
TGA weight loss [3, 6]: about 2.1%
Compound: valacyclovir phosphate [Polymorph III of valacyclovir phosphate]
